Reference: the Kinase Knowledgebase extract (Sharma et al. 2016)
Several values for one entry are separate records, joined by “and”; a condition that tells them apart may be missing. Identical values can stand only once.

Biological target: ROCK2 (human) (UniProt O75116)
Experiment: Inhibition of ROCK2 Kinase Activity

Chain of ROCK2 (human) (O75116 whole entry, looked up): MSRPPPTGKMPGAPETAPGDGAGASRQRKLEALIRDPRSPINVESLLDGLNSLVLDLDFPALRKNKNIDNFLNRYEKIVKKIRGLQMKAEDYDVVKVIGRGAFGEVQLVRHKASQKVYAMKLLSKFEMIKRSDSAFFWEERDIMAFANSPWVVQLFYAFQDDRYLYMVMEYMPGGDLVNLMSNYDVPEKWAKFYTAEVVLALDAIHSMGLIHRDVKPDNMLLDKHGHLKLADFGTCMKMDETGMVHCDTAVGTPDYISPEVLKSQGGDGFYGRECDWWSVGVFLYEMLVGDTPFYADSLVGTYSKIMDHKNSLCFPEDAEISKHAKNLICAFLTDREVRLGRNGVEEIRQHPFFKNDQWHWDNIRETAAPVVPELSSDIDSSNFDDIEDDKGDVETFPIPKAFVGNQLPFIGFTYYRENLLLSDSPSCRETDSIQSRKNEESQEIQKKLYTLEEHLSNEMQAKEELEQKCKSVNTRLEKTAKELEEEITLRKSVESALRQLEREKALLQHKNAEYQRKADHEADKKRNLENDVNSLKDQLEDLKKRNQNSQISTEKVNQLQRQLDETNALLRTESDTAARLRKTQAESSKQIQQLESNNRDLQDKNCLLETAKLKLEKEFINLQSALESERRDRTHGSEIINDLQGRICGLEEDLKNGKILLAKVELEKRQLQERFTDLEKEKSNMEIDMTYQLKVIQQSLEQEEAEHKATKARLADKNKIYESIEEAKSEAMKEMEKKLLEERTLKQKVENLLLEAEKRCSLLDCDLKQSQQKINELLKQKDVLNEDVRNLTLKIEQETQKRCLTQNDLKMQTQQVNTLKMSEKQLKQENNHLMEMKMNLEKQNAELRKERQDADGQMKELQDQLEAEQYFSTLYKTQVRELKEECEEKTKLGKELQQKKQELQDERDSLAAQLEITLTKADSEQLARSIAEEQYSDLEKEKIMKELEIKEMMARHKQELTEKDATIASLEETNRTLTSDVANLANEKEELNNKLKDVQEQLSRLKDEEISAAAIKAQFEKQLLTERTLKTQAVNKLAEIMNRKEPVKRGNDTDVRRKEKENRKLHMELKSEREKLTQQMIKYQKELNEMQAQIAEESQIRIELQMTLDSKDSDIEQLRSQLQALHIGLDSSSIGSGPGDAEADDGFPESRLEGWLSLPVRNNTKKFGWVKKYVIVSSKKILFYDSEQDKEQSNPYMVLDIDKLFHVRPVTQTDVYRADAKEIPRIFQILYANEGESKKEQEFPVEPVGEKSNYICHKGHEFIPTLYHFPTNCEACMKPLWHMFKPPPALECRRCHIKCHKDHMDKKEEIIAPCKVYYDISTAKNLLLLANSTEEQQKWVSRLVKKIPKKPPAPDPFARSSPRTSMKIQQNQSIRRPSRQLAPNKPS

| Compound | IC50 |
| --- | --- |
| CCC(N)C1(Cc2ccccc2)CCC(Oc2cc3cc[nH]c(=O)c3cc2Cl)CC1 (centres undefined) | 10 to 100 nM |
| CCC(N)[C@]1(CC)CC[C@H](Oc2cc3ccncc3cc2C)CC1 (some centres undefined) | 100 to 1000 nM |
| CC[C@]1(C(C)N)CC[C@@H](Oc2cc3c(Cc4ccccc4)c[nH]c(=O)c3cc2Cl)CC1 (some centres undefined) | 100 to 1000 nM |
| CC[C@]1(C(C)N)CC[C@@H](Oc2ccc3cnccc3c2Cl)CC1 (some centres undefined) | 100 to 1000 nM |
| CCC(N)[C@]1(CC)CC[C@H](Oc2c(F)cc3c(=O)[nH]ccc3c2C)CC1 (some centres undefined) | 100 to 1000 nM |
| CC(C)C1(C(N)c2cncs2)CCC(Oc2cc3cc[nH]c(=O)c3cc2Cl)CC1 (centres undefined) | 10 to 100 nM |
| C[C@]1(C(N)C2CC2)CC[C@@H](Oc2cc3cc[nH]c(=O)c3cc2Cl)CC1 (some centres undefined) | ≤ 10 nM |
| CC[C@]1(C(C)N)CC[C@@H](Oc2cc3cc[nH]c(=O)c3cc2F)CC1 (some centres undefined) | 10 to 100 nM |
| CCC(N)[C@]1(C2CCOCC2)CC[C@@H](Oc2cc3cc[nH]c(=O)c3cc2Cl)CC1 (some centres undefined) | 100 to 1000 nM |
| CCC(N)C1(COC(C)C)CCC(Oc2cc3cc[nH]c(=O)c3cc2Cl)CC1 (centres undefined) | 10 to 100 nM and 100 to 1000 nM |
| CC(C)C(N)C1(C(C)C)CCC(Oc2cc3cc[nH]c(=O)c3cc2Cl)CC1 (centres undefined) | 100 to 1000 nM |
| CC[C@]1(C(N)CF)CC[C@@H](Oc2cc3cc[nH]c(=O)c3cc2Cl)CC1 (some centres undefined) | ≤ 10 nM |
| CC[C@]1(C(C)N)CC[C@@H](Oc2cc3ccncc3cc2Br)CC1 (some centres undefined) | 100 to 1000 nM |
| CC[C@]1(C(C)N)CC[C@@H](Oc2c(F)cc3c(=O)[nH]ccc3c2C)CC1 (some centres undefined) | 100 to 1000 nM |
| CCC(N)[C@]1(CC)CC[C@H](Oc2c(F)cc3cnccc3c2C)CC1 (some centres undefined) | 100 to 1000 nM |
| CC[C@]1(C(N)C2CC2)CC[C@@H](Oc2cc3cc[nH]c(=O)c3cc2Cl)CC1 (some centres undefined) | ≤ 10 nM |
| CCC(N)[C@]1(CC)CC[C@H](Oc2c(C)cc3cnccc3c2C)CC1 (some centres undefined) | 100 to 1000 nM |
| CC[C@]1(C(N)CF)CC[C@H](Oc2cc3cc[nH]c(=O)c3cc2Cl)CC1 (some centres undefined) | 10 to 100 nM |
| CC[C@@H](N)[C@]1(CC)CC[C@H](Oc2cc3cc[nH]c(=O)c3cc2Cl)CC1 | ≤ 10 nM |
| CCC[C@]1(C(C)N)CC[C@@H](Oc2cc3cc[nH]c(=O)c3cc2Cl)CC1 (some centres undefined) | ≤ 10 nM |
| CCC(N)[C@]1(C2CCS(=O)(=O)CC2)CC[C@H](Oc2cc3cc[nH]c(=O)c3cc2Cl)CC1 (some centres undefined) | ≤ 10 nM |
| CC[C@H](N)[C@]1(C2CCOCC2)CC[C@H](Oc2cc3cc[nH]c(=O)c3cc2Cl)CC1 | 10 to 100 nM |

| Compound | IC50 |
| --- | --- |
| CCC(N)[C@]1(C2CCCCC2)CC[C@H](Oc2cc3cc[nH]c(=O)c3cc2Cl)CC1 (some centres undefined) | 10 to 100 nM |
| CCC(N)C1(C2CCCC2)CCC(Oc2cc3cc[nH]c(=O)c3cc2Cl)CC1 (centres undefined) | 10 to 100 nM |
| CCC(N)C1(C(C)C)CCC(Oc2cc3cc[nH]c(=O)c3cc2Cl)CC1 (centres undefined) | ≤ 10 nM and 10 to 100 nM |
| CCCC(N)C1(CC2CC2)CCC(Oc2cc3cc[nH]c(=O)c3cc2Cl)CC1 (centres undefined) | 10 to 100 nM and ≤ 10 nM |
| C[C@]1(C(N)c2ccccc2)CC[C@@H](Oc2cc3cc[nH]c(=O)c3cc2Cl)CC1 (some centres undefined) | 10 to 100 nM |
| CCC(N)[C@]1(C2CCSCC2)CC[C@H](Oc2cc3cc[nH]c(=O)c3cc2Cl)CC1 (some centres undefined) | ≤ 10 nM |
| CCC(NCC(C)C)[C@]1(CC)CC[C@H](Oc2cc3cc[nH]c(=O)c3cc2Cl)CC1 (some centres undefined) | 100 to 1000 nM |
| CCCC(N)[C@]1(C(C)C)CC[C@H](Oc2cc3cc[nH]c(=O)c3cc2Cl)CC1 (some centres undefined) | 10 to 100 nM |
| CCC(N)[C@]1(CC)CC[C@H](Oc2cc3cc[nH]c(=O)c3cc2Cl)CC1 (some centres undefined) | ≤ 10 nM |
| CCC(N)C1(CC2CC2)CCC(Oc2cc3cc[nH]c(=O)c3cc2Cl)CC1 (centres undefined) | 10 to 100 nM and ≤ 10 nM |
| CCC(N)[C@]1(C(C)C)CC[C@H](Oc2cc3c(F)c[nH]c(=O)c3cc2Cl)CC1 (some centres undefined) | 10 to 100 nM |
| CC(C)C1(C(N)c2nccs2)CCC(Oc2cc3cc[nH]c(=O)c3cc2Cl)CC1 (centres undefined) | 100 to 1000 nM |
| NC(c1ccccc1)[C@]1(CC2CC2)CC[C@H](Oc2cc3cc[nH]c(=O)c3cc2Cl)CC1 (some centres undefined) | 100 to 1000 nM |
| CCC(N)[C@]1(CCCC(F)(F)F)CC[C@H](Oc2cc3cc[nH]c(=O)c3cc2Cl)CC1 (some centres undefined) | ≤ 10 nM |
| NC(c1ccccc1)C1(C2CCCC2)CCC(Oc2cc3cc[nH]c(=O)c3cc2Cl)CC1 (centres undefined) | 10 to 100 nM |
| CCC(N)[C@]1(C)CC[C@H](Oc2cc3cc[nH]c(=O)c3cc2Cl)CC1 (some centres undefined) | ≤ 10 nM |
| CCC(N)[C@]1(CC2CCOCC2)CC[C@H](Oc2cc3cc[nH]c(=O)c3cc2Cl)CC1 (some centres undefined) | 10 to 100 nM |
| NC(C(F)(F)F)C1(CC2CC2)CCC(Oc2cc3cc[nH]c(=O)c3cc2Cl)CC1 (centres undefined) | 100 to 1000 nM |
| CCC1(C(C)N)CCC(Oc2cc3cc[nH]c(=O)c3cc2Cl)CC1 (centres undefined) | 10 to 100 nM and ≤ 10 nM |
| CCCCNC(CC)[C@]1(CC)CC[C@H](Oc2cc3cc[nH]c(=O)c3cc2Cl)CC1 (some centres undefined) | 100 to 1000 nM |
| CCC(NCc1ccccc1)[C@]1(CC)CC[C@H](Oc2cc3cc[nH]c(=O)c3cc2Cl)CC1 (some centres undefined) | 100 to 1000 nM |
| CCC(N)[C@]1(CC)CC[C@H](Oc2cc3cc[nH]c(=O)c3cc2F)CC1 (some centres undefined) | 10 to 100 nM |

More lines, now with the values ahead:

| IC50 | Compound |
| --- | --- |
| ≤ 10 nM | CC(C)CC(N)[C@]1(CC2CC2)CC[C@H](Oc2cc3cc[nH]c(=O)c3cc2Cl)CC1 (some centres undefined) |
| 10 to 100 nM | CC[C@]1(C(C)N)CC[C@@H](Oc2cc3cc[nH]c(=O)c3cc2C)CC1 (some centres undefined) |
| ≤ 10 nM | CCC(N)[C@]1(C2CC2)CC[C@H](Oc2cc3cc[nH]c(=O)c3cc2Cl)CC1 (some centres undefined) |
| 10 to 100 nM | CCC(N)C1(C)CCC(Oc2cc3cc[nH]c(=O)c3cc2Cl)CC1 (centres undefined) |
| ≤ 10 nM | NC(C1CC1)[C@]1(C2CC2)CC[C@H](Oc2cc3cc[nH]c(=O)c3cc2Cl)CC1 (some centres undefined) |
| 10 to 100 nM and 100 to 1000 nM | CCC(N)C1(C2CCC2)CCC(Oc2cc3cc[nH]c(=O)c3cc2Cl)CC1 (centres undefined) |
| ≤ 10 nM | NC(C1CC1)[C@]1(CC2CCOCC2)CC[C@H](Oc2cc3cc[nH]c(=O)c3cc2Cl)CC1 (some centres undefined) |
| ≤ 10 nM | CCCC1(C(N)CC)CCC(Oc2cc3cc[nH]c(=O)c3cc2Cl)CC1 (centres undefined) |
| ≤ 10 nM | CCCC(N)[C@]1(C)CC[C@H](Oc2cc3cc[nH]c(=O)c3cc2Cl)CC1 (some centres undefined) |
| 100 to 1000 nM | CC[C@]1(C(C)N)CC[C@@H](Oc2c(F)cc3cnccc3c2C)CC1 (some centres undefined) |
| 10 to 100 nM and ≤ 10 nM | NC(C1CC1)C1(CC2CC2)CCC(Oc2cc3cc[nH]c(=O)c3cc2Cl)CC1 (centres undefined) |
| ≤ 10 nM | NC(C1CC1)[C@]1(CCCC(F)(F)F)CC[C@H](Oc2cc3cc[nH]c(=O)c3cc2Cl)CC1 (some centres undefined) |
| 10 to 100 nM | CCC(N)[C@]1(OC)CC[C@H](Oc2cc3cc[nH]c(=O)c3cc2Cl)CC1 (some centres undefined) |
| ≤ 10 nM | CCCC[C@]1(C(N)CC)CC[C@@H](Oc2cc3cc[nH]c(=O)c3cc2Cl)CC1 (some centres undefined) |
| 100 to 1000 nM | CCC(N)[C@]1(CC)CC[C@H](Oc2cc3cc[nH]c(=O)c3cc2C)CC1 (some centres undefined) |
| ≤ 10 nM | CC[C@H](N)[C@]1(CC)CC[C@H](Oc2cc3cc[nH]c(=O)c3cc2Cl)CC1 |
| 100 to 1000 nM | CCCC[C@]1(C(N)CC)CC[C@@H](Oc2cc3c(Cc4ccccc4)c[nH]c(=O)c3cc2Cl)CC1 (some centres undefined) |
| ≤ 10 nM | CC(C)C(N)C1(CC2CC2)CCC(Oc2cc3cc[nH]c(=O)c3cc2Cl)CC1 (centres undefined) |

| IC50 | Compound |
| --- | --- |
| 100 to 1000 nM | CCC[C@]1(C(C)N)CC[C@@H](Oc2cc3ccnc(N)c3cc2Cl)CC1 (some centres undefined) |
| 10 to 100 nM | CCC1(C(N)CCOC)CCC(Oc2cc3cc[nH]c(=O)c3cc2Cl)CC1 (centres undefined) |
| 10 to 100 nM | CCOC1(C(N)CC)CCC(Oc2cc3cc[nH]c(=O)c3cc2Cl)CC1 (centres undefined) |
| 10 to 100 nM and ≤ 10 nM | CC(N)C1(CC2CC2)CCC(Oc2cc3cc[nH]c(=O)c3cc2Cl)CC1 (centres undefined) |
| 100 to 1000 nM and ≤ 10 nM | CCC(N)C1(C(F)(F)F)CCC(Oc2cc3cc[nH]c(=O)c3cc2Cl)CC1 (centres undefined) |
| ≤ 10 nM | CC[C@H](N)[C@]1(C)CC[C@H](Oc2cc3cc[nH]c(=O)c3cc2Cl)CC1 |
| ≤ 10 nM | CC[C@@H](N)[C@]1(C)CC[C@H](Oc2cc3cc[nH]c(=O)c3cc2Cl)CC1 |
| 10 to 100 nM | CC(N)C1(C2CCC2)CCC(Oc2cc3cc[nH]c(=O)c3cc2Cl)CC1 (centres undefined) |
| 10 to 100 nM | CCC(N)[C@]1(OC)CC[C@@H](Oc2cc3cc[nH]c(=O)c3cc2Cl)CC1 (some centres undefined) |
| 10 to 100 nM and 100 to 1000 nM | CCC(N)C1(CC(C)C)CCC(Oc2cc3cc[nH]c(=O)c3cc2Cl)CC1 (centres undefined) |
| 10 to 100 nM | CC(N)[C@]1(C2CC2)CC[C@H](Oc2cc3cc[nH]c(=O)c3cc2Cl)CC1 (some centres undefined) |
| ≤ 10 nM and 10 to 100 nM | CCCC1(C(N)C2CC2)CCC(Oc2cc3cc[nH]c(=O)c3cc2Cl)CC1 (centres undefined) |
| 100 to 1000 nM | CCC(NCC1CC1)[C@]1(CC)CC[C@H](Oc2cc3cc[nH]c(=O)c3cc2Cl)CC1 (some centres undefined) |
| ≤ 10 nM | CCC(N)[C@]1(C2CCOCC2)CC[C@H](Oc2cc3cc[nH]c(=O)c3cc2Cl)CC1 (some centres undefined) |
| 100 to 1000 nM | CCC(N)[C@]1(CC)CC[C@H](Oc2c(C)cc3c(=O)[nH]ccc3c2C)CC1 (some centres undefined) |
| ≤ 10 nM | CC[C@@H](N)[C@]1(C2CCOCC2)CC[C@H](Oc2cc3cc[nH]c(=O)c3cc2Cl)CC1 |
| ≤ 10 nM | CCOC[C@]1(C(N)CC)CC[C@@H](Oc2cc3cc[nH]c(=O)c3cc2Cl)CC1 (some centres undefined) |
